Results from PubChem BioAssay (NCI).
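Method: 48-hour compound exposure of cells in 96-well plates, five concentrations, linear interpolation of endpoints. The concentration for 50% growth inhibition is given as GI50. The concentration for full growth arrest is given as TGI.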

What was measured:
Assay in all cases: NCI-60 cell line screen, 48 h
HL-60(TB) leukemia = test system: HL-60(TB) leukemia
COLO 205 colon = test system: COLO 205 colon
SK-MEL-5 melanoma = test system: SK-MEL-5 melanoma
K-562 leukemia = test system: K-562 leukemia
TK-10 renal = test system: TK-10 renal
PC-3 prostate = test system: PC-3 prostate
SF-295 CNS = test system: SF-295 CNS
U251 CNS = test system: U251 CNS
SK-MEL-28 melanoma = test system: SK-MEL-28 melanoma
HOP-62 NSCLC = test system: HOP-62 NSCLC
M14 melanoma = test system: M14 melanoma
BT-549 breast = test system: BT-549 breast
IGROV1 ovarian = test system: IGROV1 ovarian
MCF7 breast = test system: MCF7 breast
HT29 colon = test system: HT29 colon
SF-539 CNS = test system: SF-539 CNS
CAKI-1 renal = test system: CAKI-1 renal
RXF 393 renal = test system: RXF 393 renal
DU-145 prostate = test system: DU-145 prostate
NCI-H226 lung = test system: NCI-H226 lung
MDA-N = test system: MDA-N
UACC-62 melanoma = test system: UACC-62 melanoma
KM12 colon = test system: KM12 colon
SN12C renal = test system: SN12C renal
HOP-92 NSCLC = test system: HOP-92 NSCLC
OVCAR-4 ovarian = test system: OVCAR-4 ovarian
OVCAR-5 ovarian = test system: OVCAR-5 ovarian
A549 NSCLC = test system: A549 NSCLC
HCT-116 colon = test system: HCT-116 colon
LOX IMVI melanoma = test system: LOX IMVI melanoma
OVCAR-3 ovarian = test system: OVCAR-3 ovarian
786-0 renal = test system: 786-0 renal
SNB-19 CNS = test system: SNB-19 CNS
NCI-H460 lung = test system: NCI-H460 lung
NCI-H23 lung = test system: NCI-H23 lung
RPMI-8226 leukemia = test system: RPMI-8226 leukemia
CCRF-CEM leukemia = test system: CCRF-CEM leukemia
HCC-2998 colon = test system: HCC-2998 colon
UO-31 renal = test system: UO-31 renal
HCT-15 colon = test system: HCT-15 colon
MOLT-4 leukemia = test system: MOLT-4 leukemia
SF-268 CNS = test system: SF-268 CNS
MALME-3M melanoma = test system: MALME-3M melanoma
SK-OV-3 ovarian = test system: SK-OV-3 ovarian
ACHN renal = test system: ACHN renal
SR leukemia = test system: SR leukemia
OVCAR-8 ovarian = test system: OVCAR-8 ovarian
UACC-257 melanoma = test system: UACC-257 melanoma
EKVX NSCLC = test system: EKVX NSCLC
SW-620 colon = test system: SW-620 colon
SNB-75 CNS = test system: SNB-75 CNS
NCI-H522 lung = test system: NCI-H522 lung
NCI/ADR-RES ovarian = test system: NCI/ADR-RES ovarian
A498 renal = test system: A498 renal
MDA-MB-435 = test system: MDA-MB-435
T-47D breast = test system: T-47D breast
MDA-MB-231 breast = test system: MDA-MB-231 breast
SK-MEL-2 melanoma = test system: SK-MEL-2 melanoma
HS 578T breast = test system: HS 578T breast

CC[N+](C)(CC)CCNC(=O)C(O)(c1ccccc1)c1ccccc1
TGI (HL-60(TB) leukemia): > 100 µM
TGI (COLO 205 colon): > 100 µM
TGI (SK-MEL-5 melanoma): > 100 µM
TGI (K-562 leukemia): > 100 µM
TGI (TK-10 renal): > 100 µM
TGI (PC-3 prostate): > 100 µM
TGI (SF-295 CNS): > 100 µM
TGI (U251 CNS): > 100 µM
TGI (SK-MEL-28 melanoma): > 100 µM
TGI (HOP-62 NSCLC): > 100 µM
TGI (M14 melanoma): > 100 µM
TGI (BT-549 breast): > 100 µM
TGI (IGROV1 ovarian): > 100 µM
TGI (MCF7 breast): > 100 µM
TGI (HT29 colon): > 100 µM
TGI (SF-539 CNS): > 100 µM
TGI (CAKI-1 renal): > 100 µM
TGI (RXF 393 renal): > 100 µM
TGI (DU-145 prostate): > 100 µM
TGI (NCI-H226 lung): > 100 µM
TGI (MDA-N): > 100 µM
TGI (UACC-62 melanoma): > 100 µM
TGI (KM12 colon): > 100 µM
TGI (SN12C renal): > 100 µM
TGI (HOP-92 NSCLC): > 100 µM
TGI (OVCAR-4 ovarian): > 100 µM
TGI (OVCAR-5 ovarian): > 100 µM
TGI (A549 NSCLC): > 100 µM
TGI (HCT-116 colon): > 100 µM
TGI (LOX IMVI melanoma): > 100 µM
TGI (OVCAR-3 ovarian): > 100 µM
TGI (786-0 renal): > 100 µM
TGI (SNB-19 CNS): > 100 µM
TGI (NCI-H460 lung): > 100 µM
TGI (NCI-H23 lung): > 100 µM
TGI (RPMI-8226 leukemia): > 100 µM
TGI (CCRF-CEM leukemia): > 100 µM
TGI (HCC-2998 colon): > 100 µM
TGI (UO-31 renal): > 100 µM
TGI (HCT-15 colon): > 100 µM
TGI (MOLT-4 leukemia): > 100 µM
TGI (SF-268 CNS): > 100 µM
TGI (MALME-3M melanoma): > 100 µM
TGI (SK-OV-3 ovarian): > 100 µM
TGI (ACHN renal): > 100 µM
TGI (SR leukemia): > 100 µM
TGI (OVCAR-8 ovarian): > 100 µM
TGI (UACC-257 melanoma): > 100 µM
TGI (EKVX NSCLC): > 100 µM
TGI (SW-620 colon): > 100 µM
TGI (SNB-75 CNS): > 100 µM
TGI (NCI-H522 lung): > 100 µM
TGI (NCI/ADR-RES ovarian): > 100 µM

COc1ccc(/C=C2\CS(=O)(=O)C/C(=C\c3ccc(OC)cc3)C2=O)cc1
GI50 (HL-60(TB) leukemia): 1.96 µM
TGI (HL-60(TB) leukemia): 5.73 µM
GI50 (A498 renal): 1.76 µM
TGI (A498 renal): 3.67 µM
GI50 (COLO 205 colon): 1.52 µM
TGI (COLO 205 colon): 2.94 µM
GI50 (SK-MEL-5 melanoma): 1.57 µM
TGI (SK-MEL-5 melanoma): 2.92 µM
GI50 (K-562 leukemia): 1.16 µM
GI50 (TK-10 renal): 2.67 µM
TGI (TK-10 renal): 6.91 µM
GI50 (PC-3 prostate): 2.09 µM
TGI (PC-3 prostate): 18.1 µM
GI50 (SF-295 CNS): 2.42 µM
TGI (SF-295 CNS): 6.59 µM
GI50 (U251 CNS): 0.497 µM
TGI (U251 CNS): 1.85 µM
GI50 (SK-MEL-28 melanoma): 1.7 µM
TGI (SK-MEL-28 melanoma): 3.17 µM
GI50 (HOP-62 NSCLC): 2.01 µM
TGI (HOP-62 NSCLC): 4.36 µM
GI50 (M14 melanoma): 1.61 µM
TGI (M14 melanoma): 3.09 µM
GI50 (BT-549 breast): 2.17 µM
TGI (BT-549 breast): 5.28 µM
GI50 (IGROV1 ovarian): 1.75 µM
TGI (IGROV1 ovarian): 5.71 µM
GI50 (MCF7 breast): 0.51 µM
TGI (MCF7 breast): 7.83 µM
GI50 (HT29 colon): 0.999 µM
GI50 (SF-539 CNS): 2.01 µM
TGI (SF-539 CNS): 4.28 µM
GI50 (CAKI-1 renal): 2.16 µM
TGI (CAKI-1 renal): 6.1 µM
GI50 (RXF 393 renal): 1.48 µM
TGI (RXF 393 renal): 2.9 µM
GI50 (DU-145 prostate): 2 µM
TGI (DU-145 prostate): 5.41 µM
GI50 (MDA-MB-435): 1.4 µM
TGI (MDA-MB-435): 5.29 µM
GI50 (NCI-H226 lung): 16.8 µM
TGI (NCI-H226 lung): > 100 µM
GI50 (T-47D breast): 2.91 µM
TGI (T-47D breast): 28.4 µM
GI50 (UACC-62 melanoma): 1.44 µM
TGI (UACC-62 melanoma): 2.78 µM
GI50 (KM12 colon): 0.676 µM
TGI (KM12 colon): 1.89 µM
GI50 (SN12C renal): 1.78 µM
TGI (SN12C renal): 4.04 µM
GI50 (HOP-92 NSCLC): 8.74 µM
TGI (HOP-92 NSCLC): 69 µM
GI50 (OVCAR-4 ovarian): 3.19 µM
TGI (OVCAR-4 ovarian): > 30.8 µM
GI50 (OVCAR-5 ovarian): 3.16 µM
TGI (OVCAR-5 ovarian): 10.3 µM
GI50 (A549 NSCLC): 2 µM
TGI (A549 NSCLC): 5.29 µM
GI50 (HCT-116 colon): 0.472 µM
TGI (HCT-116 colon): 1.43 µM
GI50 (LOX IMVI melanoma): 0.646 µM
TGI (LOX IMVI melanoma): 1.91 µM
GI50 (MDA-MB-231 breast): 3.01 µM
TGI (MDA-MB-231 breast): 9.65 µM
GI50 (OVCAR-3 ovarian): 1.79 µM
TGI (OVCAR-3 ovarian): 4.11 µM
GI50 (786-0 renal): 1.75 µM
TGI (786-0 renal): 3.21 µM
GI50 (SNB-19 CNS): 4.21 µM
TGI (SNB-19 CNS): 18.1 µM
GI50 (NCI-H460 lung): 1.9 µM
TGI (NCI-H460 lung): 4.49 µM
GI50 (NCI-H23 lung): 1.64 µM
TGI (NCI-H23 lung): 3.32 µM
GI50 (RPMI-8226 leukemia): 0.567 µM
TGI (RPMI-8226 leukemia): 4.89 µM
GI50 (CCRF-CEM leukemia): 1.35 µM
GI50 (HCC-2998 colon): 1.71 µM
TGI (HCC-2998 colon): 3.09 µM
GI50 (UO-31 renal): 1.45 µM
TGI (UO-31 renal): 3.02 µM
GI50 (HCT-15 colon): 1.84 µM
TGI (HCT-15 colon): 4.82 µM
GI50 (MOLT-4 leukemia): 2.22 µM
TGI (MOLT-4 leukemia): > 22.2 µM
GI50 (SF-268 CNS): 1.7 µM
TGI (SF-268 CNS): 5.34 µM
GI50 (MALME-3M melanoma): 2.41 µM
TGI (MALME-3M melanoma): 7.84 µM
GI50 (SK-MEL-2 melanoma): 3.09 µM
TGI (SK-MEL-2 melanoma): > 20.9 µM
GI50 (SK-OV-3 ovarian): 3.3 µM
TGI (SK-OV-3 ovarian): 26.2 µM
GI50 (ACHN renal): 1.79 µM
TGI (ACHN renal): 3.35 µM
GI50 (SR leukemia): 0.182 µM
TGI (SR leukemia): 0.423 µM
GI50 (OVCAR-8 ovarian): 1.21 µM
TGI (OVCAR-8 ovarian): 6.68 µM
GI50 (HS 578T breast): 3.07 µM
TGI (HS 578T breast): > 31.3 µM
GI50 (UACC-257 melanoma): 1.67 µM
TGI (UACC-257 melanoma): 3.63 µM
GI50 (EKVX NSCLC): 3.07 µM
TGI (EKVX NSCLC): > 36.8 µM
GI50 (SW-620 colon): 1.32 µM
TGI (SW-620 colon): 3.37 µM
GI50 (SNB-75 CNS): 8.18 µM
TGI (SNB-75 CNS): > 47.4 µM
GI50 (NCI-H522 lung): 1.15 µM
TGI (NCI-H522 lung): 3.02 µM
GI50 (NCI/ADR-RES ovarian): 2.06 µM
TGI (NCI/ADR-RES ovarian): 4.87 µM
